Results as given in patent US20230365576A1, “BRM Targeting Compounds And Associated Methods Of Use” (Prelude Therapeutics Incorporated, priority 2022, published 2023).

What was measured:
[1] = biological target: T1, SMARCA2 (Homo sapiens, UniProt P51531); experiment: SMARCA2 HiBiT degradation assay in HeLa cells; type: cell-based; details: 18 hours; for DC50: read-out: SMARCA2 IC50; for Dmax: HeLa
T1 construct: SMARCA2-HiBiT knock-in Hela monoclonal cell (CS302366); host or cells: HeLa (CRISPR HiBiT knock-in monoclonal line, heterozygous)
T1 sequence (P51531 whole entry): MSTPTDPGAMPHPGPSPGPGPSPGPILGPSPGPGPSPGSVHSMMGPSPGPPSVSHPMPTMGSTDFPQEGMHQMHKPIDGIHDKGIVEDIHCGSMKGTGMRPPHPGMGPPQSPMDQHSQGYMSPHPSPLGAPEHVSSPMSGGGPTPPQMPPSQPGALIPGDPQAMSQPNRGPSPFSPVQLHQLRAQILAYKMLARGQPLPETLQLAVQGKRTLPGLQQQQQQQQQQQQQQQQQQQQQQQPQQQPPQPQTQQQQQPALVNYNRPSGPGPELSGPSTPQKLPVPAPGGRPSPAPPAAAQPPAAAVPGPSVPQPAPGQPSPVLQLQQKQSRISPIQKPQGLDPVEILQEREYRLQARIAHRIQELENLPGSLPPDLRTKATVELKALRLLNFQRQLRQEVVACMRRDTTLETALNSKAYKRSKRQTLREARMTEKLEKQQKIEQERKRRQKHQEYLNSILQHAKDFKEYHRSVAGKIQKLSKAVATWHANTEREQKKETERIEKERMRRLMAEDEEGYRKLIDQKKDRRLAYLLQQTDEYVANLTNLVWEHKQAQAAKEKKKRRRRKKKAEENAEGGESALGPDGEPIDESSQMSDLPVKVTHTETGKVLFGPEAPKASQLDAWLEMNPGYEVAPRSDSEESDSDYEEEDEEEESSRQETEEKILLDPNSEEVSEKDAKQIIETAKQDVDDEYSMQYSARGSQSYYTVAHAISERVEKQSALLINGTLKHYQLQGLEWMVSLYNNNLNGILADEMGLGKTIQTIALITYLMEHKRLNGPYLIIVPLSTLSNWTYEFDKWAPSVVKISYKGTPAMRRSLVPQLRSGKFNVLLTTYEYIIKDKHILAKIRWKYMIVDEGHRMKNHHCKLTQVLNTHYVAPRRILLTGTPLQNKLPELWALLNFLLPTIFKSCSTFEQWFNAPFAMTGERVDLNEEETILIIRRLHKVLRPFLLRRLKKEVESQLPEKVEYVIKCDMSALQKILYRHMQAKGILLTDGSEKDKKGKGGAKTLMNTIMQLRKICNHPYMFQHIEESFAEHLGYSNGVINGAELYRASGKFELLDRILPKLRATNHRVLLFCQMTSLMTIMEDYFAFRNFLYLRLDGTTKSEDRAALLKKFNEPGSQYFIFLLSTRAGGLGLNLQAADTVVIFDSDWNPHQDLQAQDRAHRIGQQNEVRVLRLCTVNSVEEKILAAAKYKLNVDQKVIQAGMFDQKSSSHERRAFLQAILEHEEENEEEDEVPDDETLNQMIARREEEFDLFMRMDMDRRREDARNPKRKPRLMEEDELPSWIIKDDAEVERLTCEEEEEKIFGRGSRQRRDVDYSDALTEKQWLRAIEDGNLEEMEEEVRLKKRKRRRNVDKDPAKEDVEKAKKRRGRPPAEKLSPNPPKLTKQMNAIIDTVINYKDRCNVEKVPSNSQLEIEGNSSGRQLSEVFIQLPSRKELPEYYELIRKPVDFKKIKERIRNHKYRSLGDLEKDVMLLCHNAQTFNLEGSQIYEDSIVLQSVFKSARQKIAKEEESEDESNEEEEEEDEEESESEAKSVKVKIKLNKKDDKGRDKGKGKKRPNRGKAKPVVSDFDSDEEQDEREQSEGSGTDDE
Outline: (§1)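 Degradation measured as HiBiT luminescence (Nano-Glo lytic reagent) after 18 h compound exposure at 37° C. Cells were HeLa clones carrying heterozygous HiBiT tags on SMARCA2 or SMARCA4, 2500 per well; compounds at 3-fold serial dilution from 10 μM.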

[2] = biological target: T2, SMARCA4 (Homo sapiens, UniProt P51532); experiment: SMARCA4 HiBiT degradation assay in HeLa cells; type: cell-based; details: 18 hours
T2 construct: SMARCA4-HiBiT knock-in Hela monoclonal cell (CS3023226) were purchased from Promega; host or cells: HeLa (CRISPR HiBiT knock-in monoclonal line, heterozygous)
T2 sequence (P51532 whole entry): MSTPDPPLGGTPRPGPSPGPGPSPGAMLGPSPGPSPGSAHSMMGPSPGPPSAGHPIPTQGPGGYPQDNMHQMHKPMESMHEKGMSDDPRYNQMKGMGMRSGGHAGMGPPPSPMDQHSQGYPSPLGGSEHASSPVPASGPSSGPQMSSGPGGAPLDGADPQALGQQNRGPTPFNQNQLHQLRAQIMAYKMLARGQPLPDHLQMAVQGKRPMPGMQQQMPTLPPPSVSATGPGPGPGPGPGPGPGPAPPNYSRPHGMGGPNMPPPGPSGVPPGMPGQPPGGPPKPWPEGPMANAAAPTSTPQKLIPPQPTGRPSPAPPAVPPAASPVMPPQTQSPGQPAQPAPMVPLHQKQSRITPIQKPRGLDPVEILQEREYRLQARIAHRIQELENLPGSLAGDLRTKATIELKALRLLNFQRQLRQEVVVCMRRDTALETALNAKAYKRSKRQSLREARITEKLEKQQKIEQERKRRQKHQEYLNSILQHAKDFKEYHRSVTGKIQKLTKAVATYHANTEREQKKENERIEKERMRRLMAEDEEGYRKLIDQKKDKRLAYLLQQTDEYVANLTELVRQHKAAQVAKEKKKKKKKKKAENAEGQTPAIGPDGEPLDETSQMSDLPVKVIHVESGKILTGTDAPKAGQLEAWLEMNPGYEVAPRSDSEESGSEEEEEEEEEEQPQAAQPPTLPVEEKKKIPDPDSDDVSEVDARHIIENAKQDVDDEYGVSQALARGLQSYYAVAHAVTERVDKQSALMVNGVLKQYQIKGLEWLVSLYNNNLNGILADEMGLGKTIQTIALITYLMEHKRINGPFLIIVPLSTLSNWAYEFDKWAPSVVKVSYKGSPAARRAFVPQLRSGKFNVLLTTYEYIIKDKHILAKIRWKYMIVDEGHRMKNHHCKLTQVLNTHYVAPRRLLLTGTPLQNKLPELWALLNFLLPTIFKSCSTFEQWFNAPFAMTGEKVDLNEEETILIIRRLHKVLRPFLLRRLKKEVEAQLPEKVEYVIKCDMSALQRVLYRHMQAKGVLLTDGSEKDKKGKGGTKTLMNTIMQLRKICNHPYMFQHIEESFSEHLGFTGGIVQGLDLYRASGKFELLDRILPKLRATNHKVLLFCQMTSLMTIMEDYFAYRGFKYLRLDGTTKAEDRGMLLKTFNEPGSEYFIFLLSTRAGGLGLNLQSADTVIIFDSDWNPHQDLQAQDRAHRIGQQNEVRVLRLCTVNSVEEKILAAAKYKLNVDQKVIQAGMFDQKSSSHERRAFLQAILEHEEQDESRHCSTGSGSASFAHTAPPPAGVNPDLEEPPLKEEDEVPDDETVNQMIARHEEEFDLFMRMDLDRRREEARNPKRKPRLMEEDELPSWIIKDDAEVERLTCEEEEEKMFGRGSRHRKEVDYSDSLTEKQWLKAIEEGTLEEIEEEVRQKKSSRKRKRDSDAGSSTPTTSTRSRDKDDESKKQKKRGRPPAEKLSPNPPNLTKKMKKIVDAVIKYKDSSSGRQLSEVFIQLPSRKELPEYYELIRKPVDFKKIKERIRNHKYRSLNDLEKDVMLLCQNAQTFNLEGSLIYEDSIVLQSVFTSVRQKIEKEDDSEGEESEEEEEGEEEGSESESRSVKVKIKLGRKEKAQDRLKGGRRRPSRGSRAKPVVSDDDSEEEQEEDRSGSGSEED
Outline: as §1

O=C1CCC(N2Cc3ccc(N4CCN(CC5CCN(C(=O)N6CCN7c8cc(-c9cc(F)cc(F)c9O)nnc8NC[C@H]7C6)CC5)CC4)cc3C2=O)C(=O)N1 (stereo partly drawn) [Example 48, 3-(6-(4-((1-((S)-2-(3,5-difluoro-2-hydroxyphenyl)-6,6a,7,8,9,10-hexahydro-5H-pyrazino[1′,2′:4,5]pyrazino[2,3-c]pyridazine-8-carbonyl)piperidin-4-yl)methyl)piperazin-1-yl)-1-oxoisoindolin-2-yl)piperidine-2,6-dione]
DC50 [1]: < 100 nM | Dmax [1]: > 75% | DC50 [2]: < 100 nM | Dmax ([2]; HeLa): < 50%

CC1(C)CC(CN2CCN(c3ccc4c(c3)C(=O)N([C@H]3CCC(=O)NC3=O)C4)CC2)CCN1C(=O)N1CCN2c3cc(-c4cccc(F)c4O)nnc3NCC2(C)C1 (single isomer, unassigned) [Example 123]
DC50 [1]: < 100 nM | Dmax [1]: > 75% | DC50 [2]: < 100 nM | SMARCA4 DMax % [2]: A (A=Dmax>75%)
